Data on 2 compounds can be found in US20180228730A1, “USE OF WATER-SOLUBLE POLYMERS BASED ON N-VINYLPYRROLIDONE AND ACRYLIC ACID AS PHARMACEUTICAL ADJUVANTS” (BASF SE, priority 2015, published 2018).

Data set [1] in a line: Release of loperamide from extrudates in demineralized water (release device, UV/VIS). Type of data set: physicochemical. Particulars: 250 ml demineralized water, 37° C.; spectroscopic detection. The method, then:
The active ingredient release from samples 14, 15, 16 and 17 were tested in a release device with automatic spectroscopic measurement (00501FEXXX-D). The extrudates having 5% content of active ingredient were added directly to the release medium at the beginning of the experiment. […] The mixtures were filled into hard gelatine capsules and released therefrom.
Procedure for release (2 hours):
Conditions 0-2 hours: Medium: • 250 ml of demineralized water; • paddle stirrer 50 rpm; • temperature 37° C. • content determination UV/VIS with 1 cm path length cuvette • active ingredient amount 250 mg
The results of the releases are compiled in the following tables and diagrams. The release is complete in all cases.

For data set [2] the following is noted: demineralized water, 100 mg haloperidol per 250 ml, hard gelatine capsules.
Protocol: The release of the active ingredient from the spray-dried polymeric salt was carried out in demineralized water. The initial weight was calculated on 100 mg of haloperidol per 250 ml of release medium. The polymeric salt or the crystalline substance correspondingly weighed out were filled into hard gelatine capsules.

Where two headings read alike, the source gives them in different places.

For `CN(C)C(=O)C(CCN1CCC(O)(c2ccc(Cl)cc2)CC1)(c1ccccc1)c1ccccc1` [crystalline loperamide (base), loperamide], in data set [1], the “Dissolution in the release medium” value is recorded as “no dissolution at all”.
With `O=C(CCCN1CCC(O)(c2ccc(Cl)cc2)CC1)c1ccc(F)cc1` [Crystalline haloperidol, haloperidol], the Release of haloperidol in data set [2] (0 min) is 0.0%; in data set [2] (2 min), 0.1%; in data set [2] (4 min), 0.2%; in data set [2] (6 min) it was 0.3%; in data set [2] (8 min), 0.4%; in data set [2] (10 min), 0.6%. Besides, the Release of haloperidol came to 1.5% in data set [2] (30 min), 1.8% in data set [2] (60 min) and 2.3% in data set [2] (120 min).
